From the supplement of paper PMC11821682

How the values were obtained:
Danio rerio embryo = test: BMC10 any morphological effect or mortality at 120 hpf; higher = less toxic
HL-60 = test: Cell Health Index (toxicity pseudo-probability over dose series) (index 0-1); higher = more cytotoxic / cell stress;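 note: HL-60 cells exposed 4 h at 37 °C to ten threefold dilutions spanning 5 nM to 100 µM, multiparametric flow cytometry features scored by machine-learning classification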

| SMILES | BMC10 any morphological effect or mortality (Danio rerio embryo) | Cell Health Index (HL-60) |
| --- | --- | --- |
| CO[C@H]1[C@H](O)[C@@H](O)[C@@H](O)[C@H](O)[C@@H]1O [D-Pinitol] | > 100 µM | 0.174 |
| CC(=O)OCC(CCn1cnc2cnc(N)nc21)COC(C)=O [Famciclovir] | > 100 µM | 0.254 |
| CC1(C)O[C@H]2CC(=O)OC[C@]23[C@H]2CC[C@@]4(C)[C@H](c5ccoc5)OC(=O)[C@H]5O[C@]54[C@]2(C)C(=O)C[C@@H]13 [Limonin] | > 100 µM | 0.145 |
| O=C(O[C@@H]1Cc2c(O)cc(O)cc2O[C@@H]1c1ccc(O)c(O)c1)c1cc(O)c(O)c(O)c1 [(-)-Epicatechin gallate] | > 100 µM | 0.807 |
| COc1cnc(-n2cnc(C)n2)c2[nH]cc(C(=O)C(=O)N3CCN(C(=O)c4ccccc4)CC3)c12 [Temsavir] | > 100 µM | 0.146 |
| O=C([O-])P(=O)([O-])[O-].[Na+].[Na+].[Na+] [Foscarnet] | > 100 µM | 0.13 |
| CC(=O)NC1[C@H]([C@H](O)[C@H](O)CO)O[C@@](O[C@H]2[C@@H](O)[C@@H](CO)O[C@@H](O[C@@H]([C@H](O)[C@@H](O)C=O)[C@H](O)CO)[C@@H]2O)(C(=O)[O-])C[C@@H]1O.[Na+] (stereo partly drawn) [N-Acetylneuraminoyllactose] | > 100 µM | 0.235 |
| O=c1cc(-c2ccc(O)c(O)c2)oc2cc(O)cc(O)c12 [Luteolin] | > 100 µM | 0.54 |
| O[C@H]1[C@@]2([H])[C@](CC[C@]2([H])[C@@](O)(C)CC/C=C(C)/C)(C)[C@]3(C)CC[C@]4([H])[C@@](CC[C@H](O[C@]5([H])O[C@H](CO)[C@@H](O)[C@H](O)[C@H]5O)C4(C)C)(C)[C@@]3([H])C1 [20(R)-Ginsenoside Rh2] | > 100 µM | 0.227 |
| CC(=O)N[C@H]1[C@H]([C@H](O)[C@H](O)CO)OC(C(=O)O)=C[C@@H]1NC(=N)N [Zanamivir] | > 100 µM | 0.22 |
| CC(C)OC(=O)OCOP(=O)(CO[C@H](C)Cn1cnc2c(N)ncnc21)OCOC(=O)OC(C)C.O=C(O)/C=C/C(=O)O [Tenofovir Disoproxil] | > 100 µM | 0.212 |
| O=C(CCCCCCC(=O)Nc1ccccc1)NO [SAHA] | > 100 µM | 0.239 |
| Nc1nc(=O)c2c(CCc3ccc(C(=O)N[C@@H](CCC(=O)[O-])C(=O)[O-])cc3)c[nH]c2[nH]1.O.O.O.O.O.O.O.[Na+].[Na+] [Pemetrexed] | > 100 µM | 0.15 |
| CC[C@H](NC(=O)[C@H](C)NC)C(=O)N1C[C@@H](O)C[C@H]1Cc1c(-c2[nH]c3cc(F)ccc3c2C[C@@H]2C[C@H](O)CN2C(=O)[C@H](CC)NC(=O)[C@H](C)NC)[nH]c2cc(F)ccc12 [Birinapant] | > 100 µM | 0.282 |
| CC1(C)CC[C@]2(C(=O)O[C@@H]3O[C@H](CO)[C@@H](O)[C@H](O)[C@H]3O)CC[C@]3(C)C(=CC[C@@H]4[C@@]5(C)CC[C@H](O[C@@H]6O[C@H](C(=O)O)[C@@H](O)[C@H](O)[C@H]6O[C@@H]6O[C@H](CO)[C@@H](O)[C@H](O)[C@H]6O)C(C)(C)[C@@H]5CC[C@]43C)[C@@H]2C1 [Ginsenoside Ro] | > 100 µM | 0.229 |
| Cc1cn([C@H]2C=C[C@@H](CO)O2)c(=O)[nH]c1=O [Stavudine] | > 100 µM | 0.204 |
| O=C1NC(=O)C(c2ccccc2)(c2ccccc2)N1 [Phenytoin] | > 100 µM | 0.193 |

| SMILES | BMC10 any morphological effect or mortality (Danio rerio embryo) | Cell Health Index (HL-60) |
| --- | --- | --- |
| N#C[C@@]1(c2ccc3c(N)ncnn23)O[C@H](CO)[C@@H](O)[C@H]1O | > 100 µM | 0.185 |
| O=c1c(-c2ccc(O)c(O)c2)coc2cc(O)ccc12 [3',4',7-Trihydroxyisoflavone] | > 100 µM | 0.478 |
| CC(C)(C)C#Cc1cc(N(C(=O)[C@H]2CC[C@H](C)CC2)[C@H]2CC[C@@H](O)CC2)c(C(=O)O)s1 [Lomibuvir] | > 100 µM | 0.414 |
| COc1cc2c(cc1OC)CN(CCc1ccc(NC(=O)c3cccc4c(=O)c5cccc(OC)c5[nH]c34)cc1)CC2 [Elacridar] | > 100 µM | 0.592 |
| C=C(C)[C@@H]1CC[C@]2(C=O)CC[C@]3(C)[C@H](CC[C@@H]4[C@@]5(C)CC[C@H](O)C(C)(C)[C@@H]5CC[C@]43C)[C@@H]12 [Betulinic aldehyde] | > 100 µM | 0.515 |
| Oc1cc(O)c2c(c1)O[C@@H](c1ccc(O)c(O)c1)[C@H](O)C2 [(-)-Catechin] | > 100 µM | 0.201 |
| COC(=O)N[C@H](C(=O)N[C@@H](Cc1ccccc1)[C@@H](O)CN(Cc1ccc(-c2ccccn2)cc1)NC(=O)[C@@H](NC(=O)OC)C(C)(C)C)C(C)(C)C [Atazanavir] | > 100 µM | 0.374 |
| Cl.N=C(N)NC(=N)N1CCOCC1 [Moroxydine] | > 100 µM | 0.19 |
| O=C(/C=C/c1ccc(O)c(O)c1)O[C@@H]1C[C@](OC(=O)/C=C/c2ccc(O)c(O)c2)(C(=O)O)C[C@@H](O)[C@H]1O [1,5-Dicaffeoylquinic acid] | > 100 µM | 0.569 |
| Cl.Nc1ccn([C@@H]2O[C@H](CO)[C@@H](O)C2(F)F)c(=O)n1 [Gemcitabine] | > 100 µM | 0.172 |
| O=c1[nH]c(=O)n([C@H]2C[C@H](O)[C@@H](CO)O2)cc1I [Idoxuridine] | > 100 µM | 0.205 |
| CC(=O)CCCCn1c(=O)c2c(ncn2C)n(C)c1=O [Pentoxifylline] | > 100 µM | 0.147 |
| O=c1c(-c2ccc(O)cc2)coc2cc(O[C@@H]3O[C@H](CO)[C@@H](O)[C@H](O)[C@H]3O)ccc12 [Daidzin] | > 100 µM | 0.169 |
| C[C@@H]1O[C@@H](OC[C@H]2O[C@@H](Oc3c(-c4ccc(O)c(O)c4)oc4cc(O)cc(O)c4c3=O)[C@H](O)[C@@H](O)[C@@H]2O)[C@H](O)[C@H](O)[C@H]1O.O.O.O [Rutin] | > 100 µM | 0.252 |
| CC1=CC(=O)/C(=C/c2ccc(O)c(O)c2)O1 [Inotilone] | > 100 µM | 0.76 |
| CCc1cccc(CC)c1NC(=O)N1Cc2[nH]nc(NC(=O)c3ccc(N4CCN(C)CC4)cc3)c2C1 | > 100 µM | 0.634 |
| Cc1cc(O)c2c(c1)C(=O)c1cccc(O)c1C2=O [Chrysophanol] | > 100 µM | 0.288 |
